In US20190119282A1, “IMIDAZOPYRIDAZINES USEFUL AS INHIBITORS OF THE PAR-2 SIGNALING PATHWAY” (Vertex Pharmaceuticals Incorporated, priority 2013, published 2019):
Marks after values point to notes of the source that are not given here.

Columns and labels:
[1] = molecular target: T1, PAR2 (HT-29 cells, SLIGKV activation) (Homo sapiens, UniProt P55085); assay: Ca FLIPR TETRA assay, ANTAGONIST mode, stimulation with 8 μM SLIGKV; format: cell-based; settings: HT-29 cells
T1 construct: host or cells: HT-29 cells
T1 sequence (P55085 26-397): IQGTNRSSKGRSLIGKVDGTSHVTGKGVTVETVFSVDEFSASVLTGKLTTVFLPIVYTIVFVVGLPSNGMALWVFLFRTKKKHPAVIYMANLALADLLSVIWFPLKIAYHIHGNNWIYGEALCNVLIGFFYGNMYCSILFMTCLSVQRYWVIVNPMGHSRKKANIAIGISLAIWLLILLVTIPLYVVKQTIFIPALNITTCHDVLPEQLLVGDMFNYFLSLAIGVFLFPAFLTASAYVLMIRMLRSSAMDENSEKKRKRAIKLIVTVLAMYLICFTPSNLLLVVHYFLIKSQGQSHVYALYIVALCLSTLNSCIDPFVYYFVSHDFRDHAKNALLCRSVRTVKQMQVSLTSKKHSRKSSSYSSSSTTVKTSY
Procedure, shortened: (§1)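 HT-29 cells in 1% FBS/McCoy's overnight, loaded with Calcium 5 dye; compounds added and read first for intrinsic Ca2+ activation, then incubated 30 min at r.t. Antagonism read on FLIPR Tetra after stimulation with final 8 μM SLIGKV, 3.1 U/mL trypsin, 1 U/mL thrombin or 0.6 μM UTP.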

[2] = molecular target: T2, PAR2 (HT-29 cells, trypsin activation) (Homo sapiens, UniProt P55085); assay: Ca FLIPR TETRA assay, ANTAGONIST mode, stimulation with 3.1 U/mL trypsin; format: cell-based; settings: HT-29 cells
T2 construct: host or cells: HT-29 cells
T2 sequence (P55085 26-397): T1 sequence (P55085 26-397)
Procedure, shortened: as §1

[3] = tested on: Thrombin-stimulated Ca2+ response in HT-29 cells; assay: Ca FLIPR TETRA assay, ANTAGONIST mode, stimulation with 1 U/mL Thrombin; format: cell-based, human; settings: Homo sapiens, HT-29 cells
Procedure, shortened: as §1

[4] = tested on: UTP-stimulated Ca2+ response in HT-29 cells; assay: Ca FLIPR TETRA assay, ANTAGONIST mode, stimulation with 0.6 μM UTP; format: cell-based, human; settings: Homo sapiens, HT-29 cells
Procedure, shortened: as §1

[5] = tested on: carrageenan-induced paw edema; assay: Rat carrageenan-induced paw edema model; format: in vivo, Sprague Dawley rats; settings: given before carrageenan challenge
Procedure: Male Sprague Dawley rats and BALB/c mice were housed in groups in a temperature controlled room and were acclimatized in the animal facility for at least three days prior to use. Experiments were performed during the light phase of the cycle. Animals have food and water ad libitum.
Example 63: Rat Carrageenan-Induced Paw Edema Model
Peripheral inflammation was induced by intra-plantar administration of 100 ul of a 1% w/volume (in saline) carrageenan solution under isoflurane anesthesia. The degree of swelling was assessed using the plethysmometer at 2-3-4-5-6 h after carrageenan injection. Test compound or vehicle (0.5% MC/0.1% SDS) was systemically administered at the indicated doses in a volume of 5 mL/kg either I-3 hour before carrageenan challenge (Table 9) or 2 hours post carrageenan challenge (Table 10).
Data are expressed as the mean % effect. Statistical significance was assessed using t-test for comparison between naive and inflamed rats, and one-way ANOVA followed by post-hoc comparison test for overall drug effectiveness. A difference between groups is considered significant with a p value of <0.05. *, p<0.05; **, p<0.01; ***, p<0.001 vs. vehicle.

[6] = In vivo rat pharmacokinetics (intravenous and oral); settings: plasma; for clearance: intravenous 0.5 to 1 mg/kg, read-out: Clp; for Vd: intravenous, read-out: Vss; for bioavailability: oral by gavage; for half-life: read-out: T ½ (converted)
Procedure: Example 61: Protocol for Testing PAR2 Compounds In Vivo Rat Pharmacokinetics Experiments
Compounds delivered by intravenous route were formulated using a solution formulation consisting of 5% N-methylpyrrolidone 10% Vitamin E-TPGS and 85% water (v/v/) or a solution formulation consisting of 25% N-methylpyrrolidone 35% polyethylene glycol 400 and 40% water (v/v/). Intravenous formulations were administered by a bolus injection (over approximately 10 seconds) using a hypodermic needle attaches to a syringe (tail vein). The dose volume was varied from 1 to 2 mL/kg and the dose was varied from 0.5 to 1 mg/kg. Compounds delivered orally were formulated as a solution formulation consisting of 5% N-methylpyrrolidone 10% Vitamin E-TPGS and 85% water (v/v/) or as fine suspension using a cellulose derivative suspending agent with or without the addition of a wetting agent/surfactant. Milling of large particles was performed as needed to reduce particle size using focused electroacoustic milling, homogenization or low energy media milling. A spray-dried solid dispersion was prepared for key compounds using 1:1 combination with cellulose derivatives. Test compounds were administered orally by gavage using a gavage plastic needle attached to a syringe. The dose volume was varied from 5 to 10 mL/kg and the dose was varied from 1 to 600 mg/kg.
Rats were bled by venipuncture (jugular vein) and the samples were collected into tubes containing K3EDTA. The tubes were placed on wet ice until processed. The samples were centrifuged for approximately 10 minutes (at approximately 4° C.) within approximately 30 minutes of collection to prepare plasma or diluted in citrate buffer (1:3) and stored frozen (approximately −30° C.). Thawed plasma or whole blood samples were extracted by protein precipitation using an organic solvent followed by centrifugation. The supernatants were separated by high-performance liquid chromatography coupled to mass spectrometry detection. A calibration curve was prepared using reference standard compounds spiked into either blank plasma or whole blood matrices and extracted similarly to unknown samples. Pharmacokinetic parameters were calculated using non-compartmental analysis.

[7] = antagonist mode, stimulation with 8 μM SLIGKV
[8] = antagonist mode, stimulation with 3.1 U/mL trypsin
[9] = antagonist mode, stimulation with 1 U/mL Thrombin
[10] = antagonist mode, stimulation with 0.6 μM UTP
[11] = antagonist mode, 3.1 U/mL trypsin
[12] = antagonist mode, 1 U/mL Thrombin
[13] = stimulation with 3.1 U/mL trypsin
[14] = stimulation with 1 U/mL Thrombin

SMILES	IC50 [1, 7]	IC50 [2, 8]	IC50 [3, 9]	IC50 [4, 10]	clearance [6]	Vd [6]	bioavailability [6]	half-life [6]	IC50 ([1]; stimulation with 8 μM SLIGKV)	IC50 [2, 13]	IC50 [3, 14]	IC50 ([4]; stimulation with 0.6 μM UTP)	further results
CC(C)(C)c1cc(-c2ccc(F)cc2)nn2cc(C(=O)N3CCN(c4cn[nH]c4)C(=O)C3(C)C)nc12 [Compound I-310]	0.6 nM	1 nM	> 1000 nM	880 nM	–	–	–	–	–	–	–	–	% inhibition of carrageenan induced paw edema ([5]; dose 5 mg/kg): 25** %
CC(C)c1cc(-c2ccc(C(F)(F)F)c(F)c2)nn2cc(C(=O)N3CCN(C(=O)C(C)(C)O)CC3(C)C)nc12 [Compound I-252]	2.6 nM	6.7 nM	> 1000 nM	> 1000 nM	4.17 mL/min/kg	1.49 L/kg	92%	5.85 h	–	–	–	–	–
CC(C)(C)c1cc(-c2ccc(F)cc2)nn2cc(C(=O)N3CCN(C(=O)[C@H]4CC[C@@](C)(C(=O)O)CC4)CC3(C)C)nc12 [Compound I-563, (1S,4S)-4-(4-(8-(tert-butyl)-6-(4-fluorophenyl)imidazo[1,2-b]pyridazine-2-carbonyl)-3,3-dimethylpiperazine-1-carbonyl)-1-methylcyclohexane-1-carboxylic acid]	–	–	–	–	61.7 mL/min/kg	1.19 L/kg	15%	0.413 h	–	–	–	–	IC50 ([1]; antagonist mode, 8 μM SLIGKV): 0.3 nM; IC50 [2, 11]: 0.4 nM; IC50 [3, 12]: > 1000 nM; IC50 ([4]; antagonist mode, 0.6 μM UTP): > 1000 nM
CC(C)(O)C(=O)N1CCN(C(=O)c2cn3nc(-c4ccc(F)cc4)cc(C4(C)CC4)c3n2)C(C)(C)C1 [Compound I-32, 1-[4-[6-(4-fluorophenyl)-8-(1-methylcyclopropyl)imidazo[1,2-b]pyridazine-2-carbonyl]-3,3-dimethyl-piperazin-1-yl]-2-hydroxy-2-methyl-propan-1-one]	–	–	–	–	29.3 mL/min/kg	2.2 L/kg	39%	1.4 h	17 nM	21 nM	> 50000 nM	> 50000 nM	–
CC(C)(C)c1cc(C2CCC(F)(F)CC2)nn2cc(C(=O)N3CCN(C(=O)[C@H]4C[C@@](C)(O)C4)CC3(C)C)nc12 [Compound I-452, [8-tert-butyl-6-(4,4-difluorocyclohexyl)imidazo[1,2-b]pyridazin-2-yl]-[4-(3-hydroxy-3-methyl-cyclobutanecarbonyl)-2,2-dimethyl-piperazin-1-yl]methanone]	3.3 nM	6.2 nM	7850 nM	11600 nM	7.24 mL/min/kg	1.96 L/kg	67%	3.62 h	–	–	–	–	–
CC1(C)C(=O)NCCN1C(=O)c1cn2nc(-c3ccc(F)cc3)cc(C3CCOCC3)c2n1 [Compound I-29, 4-[6-(4-fluorophenyl)-8-tetrahydropyran-4-yl-imidazo[1,2-b]pyridazine-2-carbonyl]-3,3-dimethyl-piperazin-2-one]	–	–	–	–	3.6 mL/min/kg	1.8 L/kg	71%	6.7 h	240 nM	390 nM	> 50000 nM	> 50000 nM	–
CC(C)(O)C1CCCN(C(=O)c2cn3nc(-c4ccc(F)cc4)cc(C(F)(F)F)c3n2)C1 (stereo not shown) [Compound I-69]	–	–	–	–	–	–	–	–	6000 nM	9300 nM	8500 nM	36000 nM	–
CC1(C)CN(C(=O)C2CC(O)(C(F)(F)F)C2)CCN1C(=O)c1cn2nc(-c3ccc(F)cc3)cc(C3CCOCC3)c2n1 (stereo not shown) [Compound I-204]	42.5 nM	93 nM	> 1000 nM	> 1000 nM	–	–	–	–	–	–	–	–	–
CC(C)c1cc(-c2ccc(F)cc2)nn2cc(C(=O)N3CCN(C(=O)C(O)C(C)C)CC3(C)C)nc12 (stereo not shown) [Compound I-176]	–	–	–	–	–	–	–	–	6 nM	11 nM	14000 nM	17000 nM	–
Cc1cc(-c2ccc(F)cc2)nn2cc(C(=O)N3CCN(C(=O)[C@H](O)CC(C)(C)C)[C@@H](C)C3)nc12 [Compound I-9, (R)-1-((S)-4-(6-(4-Fluorophenyl)-8-methylimidazo[1,2-b]pyridazine-2-carbonyl)-2-methylpiperazin-1-yl)-2-hydroxy-4,4-dimethylpentan-1-one]	–	–	–	–	21.7 mL/min/kg	1.4 L/kg	57%	1.2 h	9 nM	110 nM	> 5000 nM	> 5000 nM	–
CC(C)c1cc(-c2cccc(C(F)(F)F)c2)nn2cc(C(=O)N3CCN(C(=O)C(C)(C)O)CC3(C)C)nc12 [Compound I-217]	205 nM	545 nM	> 1000 nM	> 1000 nM	–	–	–	–	–	–	–	–	–
C[C@H]1CN(C(=O)c2cn3nc(-c4ccc(F)cc4)cc(C(F)(F)F)c3n2)CCN1C(=O)c1ccccc1 [Compound I-89]	–	–	–	–	–	–	–	–	270 nM	900 nM	> 50000 nM	> 50000 nM	–
CC(C)(C)c1cc(-c2ccc(F)cc2)nn2cc(C(=O)N3CCN(C(=O)CCC(=O)O)CC3(C)C)nc12 [Compound I-560, 4-(4-(8-(tert-butyl)-6-(4-fluorophenyl)imidazo[1,2-b]pyridazine-2-carbonyl)-3,3-dimethylpiperazin-1-yl)-4-oxobutanoic acid]	–	–	–	–	–	–	–	–	–	–	–	–	IC50 ([1]; antagonist mode, 8 μM SLIGKV): 4.9 nM; IC50 [2, 11]: 9.3 nM; IC50 [3, 12]: > 1000 nM; IC50 ([4]; antagonist mode, 0.6 μM UTP): > 1000 nM

Further lines, with some results ahead:

IC50 [1, 7]	IC50 [2, 8]	IC50 [3, 9]	IC50 [4, 10]	clearance [6]	Vd [6]	bioavailability [6]	half-life [6]	IC50 ([1]; stimulation with 8 μM SLIGKV)	IC50 [2, 13]	IC50 [3, 14]	IC50 ([4]; stimulation with 0.6 μM UTP)	SMILES	further results
0.6 nM	0.8 nM	590 nM	590 nM	–	–	–	–	–	–	–	–	CC(C)(C)c1cc(-c2ccc(F)cc2)nn2cc(C(=O)N3CCN(C(=O)c4cn[nH]c4)CC3(C)C)nc12 [Compound I-228]	% inhibition of carrageenan induced paw edema ([5]; dose 10 mg/kg): 48** %
0.7 nM	1.6 nM	570 nM	420 nM	–	–	–	–	–	–	–	–	CC(C)(C)c1cc(-c2ccc(F)cc2)nn2cc(C(=O)N3CCN(C(=O)c4nc[nH]n4)CC3(C)C)nc12 [Compound I-227]	% inhibition of carrageenan induced paw edema ([5]; dose 0.3 mg/kg): 35* %; % inhibition of carrageenan induced paw edema ([5]; dose 10 mg/kg): 64** %
2 nM	2 nM	> 1000 nM	> 1000 nM	7.15 mL/min/kg	2.04 L/kg	69%	5.36 h	–	–	–	–	Cc1cc(C(=O)N2CCN(C(=O)c3cn4nc(-c5ccc(F)cc5)cc(C(C)C)c4n3)C(C)(C)C2)[nH]n1 [Compound I-303]	–
0.6 nM	0.6 nM	> 1000 nM	> 1000 nM	–	–	–	–	–	–	–	–	Cc1ccc(-c2cc(C(C)(C)C)c3nc(C(=O)N4CCN(C(=O)c5nc(C)n[nH]5)CC4(C)C)cn3n2)cc1 [Compound I-397]	–
